These results are taken from patent publication US20160120950A1, “Pharmaceutical Formulations Comprising Incretin Mimetic Peptide and Aprotic Polar Solvent” (Amylin Pharmaceuticals, LLC, priority 2008, published 2016).

The nature of series [1]: Stability of exendin-4 in DMSO and DMSO/0.5% water, SEC-HPLC potency (Example 1). The class given is physicochemical. Conditions: in DMSO and DMSO with 0.5% water, up to 6 months at 5, 25, 40° C. Here is the method:
(§1) The stability of exendin-4 in DMSO and DMSO with 0.5% water added may be evaluated as follows. The evaluation may be based on the stability of exendin-4 samples stored at 5, 25, and 40° C. for up to 6 months. Further, the stability of exendin-4 in DMSO, as compared to aqueous buffers at a pH of 4.5 may be evaluated.
(§2) Three HPLC methods may be used to analyze the samples: size exclusion HPLC (SEC-HPLC) to determine potency (mg/ml) and two methods to evaluate purity (%), a strong cation exchange (SCX) method and a reversed-phase (RP) method. The methods may be adapted as necessary to achieve appropriate sample analysis. Additionally, the water content of the samples may be evaluated using a suitable Karl Fischer analytical procedure.
For example, SEC-HPLC can be used to measure the potency of an exendin-4 solution by external standard assay, based on total peptide content of the exendin-containing solution at 214 nm, as compared to qualified reference standard solutions. The identity, potency and label strength of exendin-4 can be established by comparison of the retention times of the exendin-4 peaks in the sample and reference standard solutions.
For a six-month delivery period, approximately 3600 μg of exendin-4 may be desirable based on a 20 μg/day dose. Assuming a representative delivery reservoir of approximately 150 μL, a concentration of about 25 mg/mL may be desirable. […]

Series [2] is described as follows: Stability of exendin-4 in DMSO, DMSO/0.5% water and aqueous buffer pH 4.5, SCX-HPLC purity (Example 1). It counts as physicochemical. Conditions: FIGS. 3 and 4, 25° C. and 40° C. Here is the method: as §1, §2
For a six-month delivery period, approximately 3600 μg of exendin-4 may be desirable based on a 20 μg/day dose. Assuming a representative delivery reservoir of approximately 150 μL, a concentration of about 25 mg/mL may be desirable. Further, proteins and peptides are commonly lyophilized and often include some residual moisture. As such, the effect of water on peptide stability may be investigated, and samples may be prepared in neat DMSO and in DMSO with 0.5% water added.
This concentration of water will depress the 18.6° C. freezing point of DMSO to only about 17.5° C. […]

Series [3] in a line: Stability of exendin-4 in DMSO formulations, text summary of SCX- and RP-HPLC purity (Example 1, FIGS. 1 and 2). It counts as physicochemical. Here is the method: as §1, §2
More particularly, 25 mg/mL samples of exendin-4 in neat DMSO and DMSO/0.5% water are prepared in N2 atmosphere and held at 5, 25, and 40° C. for 6 months (abbreviated as “mos.”).
Exendin-4 may be formulated in DMSO and DMSO spiked with 0.5% water. […] Exendin-4 purity is reduced about 28% from initial values after 6 months at 40° C. At 25° C., the purity is decreased about 3 to 4% over the same time period. (See FIGS. 1 and 2). However, at 5° C. the purity remains within 0.4 to 0.6% of initial purity values. […] By comparison to aqueous product stability (FIGS. 3 and 4), it is apparent that exendin-4 stability is improved in the aprotic, polar solvent DMSO.

The nature of series [4]: Exendin-4 stability in aprotic, polar solvent systems, SCX-Purity (Example 2). It counts as physicochemical. Conditions: 10% w/w water (0.67 mole fraction DMSO). Here is the method:
The stability of exendin-4 in other aprotic, polar solvents and in DMSO-based co-solvent systems may also be evaluated. The evaluation may be based on the stability of exendin-4 samples stored at 5, 25, and 37° C. for up to 6 months. In addition to dimethyl sulfoxide (DMSO), solvents for evaluation include water, dimethyl acetamide (DMA), dimethyl formamide (DMF), N-methylpyrrolidone (NMP), Propylene carbonate, and ethyl acetate.
Three HPLC methods may be used to analyze the samples: size exclusion HPLC (SEC-HPLC) to determine potency (mg/ml) and two methods to evaluate purity (%), a strong cation exchange (SCX) method and a reversed-phase (RP) method. […] Additionally, the water content of the samples may be evaluated using a suitable Karl Fischer analytical procedure.
Nonaqueous Solvents: The stability of exendin-4 in aprotic, polar solvents with freezing points lower than 0° C. may be evaluated. […]
Co-solvent System with Water: Water at approximately 8% w/w depresses the freezing point of DMSO to just below 0° C. To provide additional protection against freezing, a 10% w/w water solution may be evaluated. […]
Co-solvent Systems with Aprotic, Polar Solvents: Other solvents can also be used to depress the freezing point of DMSO. […] Appropriate amounts of the non-aqueous solvent may first be determined. Next the solubility of exendin-4 may be evaluated by visual inspection in the co-solvent mixture. […]

The subject of another series is cloned GLP-1 receptor. Conditions: cells transfected with the cloned GLP-1 receptor; cited from earlier work.

With Exendin-4, the changes in potency result in series [1] is “Essentially no changes”. In addition, the “stability in DMSO by comparison to aqueous product stability” value in series [2] was “improved”. Besides, in series [3] (DMSO vs DMSO spiked with 0.5% water), the “difference due to the presence of 0.5% water” value was “no substantial difference”. Besides, the “purity reduced from initial values” in series [3] (in DMSO and DMSO with 0.5% water, 6 months at 40° C.) is listed as “about 28%”. Moreover, in series [4], the “stability of exendin-4 in DMSO solvent solution containing 10% w/w water” value is “enhanced”. Besides, the “activity at the cloned GLP-1 receptor (cAMP)” value in the series on cloned GLP-1 receptor is given as “agonist”.

Turning to exendin[9-39], in the series on cloned GLP-1 receptor, the “activity at the cloned GLP-1 receptor (cAMP)” value was “antagonist”.
